What was measured:
Assay in all cases: relative viability (nuclei count vs DMSO), 5 days (fraction); higher = more cells survive
[1] = compound: O=C(/C=C/c1ccccc1)NC(NC(=S)Nc1cccc2cccnc12)C(Cl)(Cl)Cl [Salubrinal] + Cc1nc(Nc2ncc(C(=O)Nc3c(C)cccc3Cl)s2)cc(N2CCN(CCO)CC2)n1 [Dasatinib] (partner 0.075 µM)
Summary of the method: (§1)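 Five library-drug doses in √10 steps were combined with a fixed anchor-drug dose, or a single drug was given alone, by pin tool to lung cancer cell lines in 1536-well plates the day after seeding. Nuclei were stained and counted after 5 days. Relative viability is the nuclei count in treated wells over that in vehicle wells, taken as the median of duplicate plates.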

[2] = compound: Cc1ccc2nc(NCCN)c3ncc(C)n3c2c1 + Nc1ncn([C@H]2C[C@H](O)[C@@H](CO)O2)c(=O)n1 [Decitabine] (partner 2 µM)
Summary of the method: as §1

[3] = compound: O=C(/C=C/c1ccccc1)NC(NC(=S)Nc1cccc2cccnc12)C(Cl)(Cl)Cl [Salubrinal] + CCNC(=O)c1noc(-c2cc(C(C)C)c(O)cc2O)c1-c1ccc(CN2CCOCC2)cc1 [Luminespib] (partner 0.01 µM)
Summary of the method: as §1

[4] = compound: Cc1ccc2nc(NCCN)c3ncc(C)n3c2c1 + CC(C)C[C@H](NC(=O)[C@H](Cc1ccccc1)NC(=O)c1cnccn1)B(O)O [Bortezomib] (partner 0.002 µM)
Summary of the method: as §1

With NCI-H1666 the relative viability ([1]; first compound 0.08 µM) was 0.845, the relative viability ([1]; first compound 0.253 µM) was 0.721 and the relative viability ([1]; first compound 0.8 µM) was 0.799. It also gave a relative viability ([1]; first compound 2.53 µM) of 0.806, a relative viability ([1]; first compound 8 µM) of 0.613 and a relative viability ([2]; first compound 0.04 µM) of 0.753. It also gave a relative viability ([2]; first compound 0.1265 µM) of 0.719, a relative viability ([2]; first compound 0.4 µM) of 0.692 and a relative viability ([2]; first compound 1.265 µM) of 0.792. For the same cell line, the relative viability ([2]; first compound 4 µM) was 0.647, the relative viability ([3]; first compound 0.08 µM) was 0.984 and the relative viability ([3]; first compound 0.253 µM) was 0.903. It also gave a relative viability ([3]; first compound 0.8 µM) of 0.95, a relative viability ([3]; first compound 2.53 µM) of 0.945 and a relative viability ([3]; first compound 8 µM) of 1.1. The relative viability ([4]; first compound 0.04 µM) was 0.878, the relative viability ([4]; first compound 0.1265 µM) was 0.8 and the relative viability ([4]; first compound 0.4 µM) was 0.762. For the same cell line, the relative viability ([4]; first compound 1.265 µM) was 1.03 and the relative viability ([4]; first compound 4 µM) was 0.689.
In the case of NCI-H1734, the relative viability ([1]; first compound 0.08 µM) is reported as 0.485, the relative viability ([1]; first compound 0.253 µM) is reported as 0.462 and the relative viability ([1]; first compound 0.8 µM) is reported as 0.574. For the same cell line, the relative viability ([1]; first compound 2.53 µM) was 0.465, the relative viability ([1]; first compound 8 µM) was 0.422 and the relative viability ([2]; first compound 0.04 µM) was 0.464. The relative viability ([2]; first compound 0.1265 µM) was 0.5, the relative viability ([2]; first compound 0.4 µM) was 0.458 and the relative viability ([2]; first compound 1.265 µM) was 0.501. For the same cell line, the relative viability ([2]; first compound 4 µM) was 0.511, the relative viability ([3]; first compound 0.08 µM) was 0.174 and the relative viability ([3]; first compound 0.253 µM) was 0.175. It also gave a relative viability ([3]; first compound 0.8 µM) of 0.199, a relative viability ([3]; first compound 2.53 µM) of 0.17 and a relative viability ([3]; first compound 8 µM) of 0.241. The relative viability ([4]; first compound 0.04 µM) was 1.04, the relative viability ([4]; first compound 0.1265 µM) was 0.965 and the relative viability ([4]; first compound 0.4 µM) was 0.942. It also gave a relative viability ([4]; first compound 1.265 µM) of 0.935 and a relative viability ([4]; first compound 4 µM) of 0.999.
Cell Line NCI-H1755 has a relative viability ([1]; first compound 0.08 µM) of 0.443, a relative viability ([1]; first compound 0.253 µM) of 0.444 and a relative viability ([1]; first compound 0.8 µM) of 0.45. It also gave a relative viability ([1]; first compound 2.53 µM) of 0.426, a relative viability ([1]; first compound 8 µM) of 0.344 and a relative viability ([2]; first compound 0.04 µM) of 0.716. For the same cell line, the relative viability ([2]; first compound 0.1265 µM) was 0.764, the relative viability ([2]; first compound 0.4 µM) was 0.681 and the relative viability ([2]; first compound 1.265 µM) was 0.7. It also gave a relative viability ([2]; first compound 4 µM) of 0.723, a relative viability ([3]; first compound 0.08 µM) of 0.414 and a relative viability ([3]; first compound 0.253 µM) of 0.637. It also gave a relative viability ([3]; first compound 0.8 µM) of 0.707, a relative viability ([3]; first compound 2.53 µM) of 0.293 and a relative viability ([3]; first compound 8 µM) of 0.378. The relative viability ([4]; first compound 0.04 µM) was 1.02, the relative viability ([4]; first compound 0.1265 µM) was 0.99 and the relative viability ([4]; first compound 0.4 µM) was 0.897. For the same cell line, the relative viability ([4]; first compound 1.265 µM) was 0.956 and the relative viability ([4]; first compound 4 µM) was 1.02.
NCI-H1792 gave a relative viability ([1]; first compound 0.08 µM) of 0.822, a relative viability ([1]; first compound 0.8 µM) of 0.723 and a relative viability ([1]; first compound 2.53 µM) of 0.81. It also gave a relative viability ([1]; first compound 8 µM) of 0.702, a relative viability ([2]; first compound 0.04 µM) of 0.614 and a relative viability ([2]; first compound 0.1265 µM) of 0.553. It also gave a relative viability ([2]; first compound 1.265 µM) of 0.511, a relative viability ([2]; first compound 4 µM) of 0.461 and a relative viability ([3]; first compound 0.08 µM) of 0.574. It also gave a relative viability ([3]; first compound 0.8 µM) of 0.472, a relative viability ([3]; first compound 2.53 µM) of 0.624 and a relative viability ([3]; first compound 8 µM) of 0.587. The relative viability ([4]; first compound 0.04 µM) was 0.963, the relative viability ([4]; first compound 0.1265 µM) was 0.915 and the relative viability ([4]; first compound 0.4 µM) was 0.912. The relative viability ([4]; first compound 1.265 µM) was 0.94 and the relative viability ([4]; first compound 4 µM) was 0.968.
NCI-H1915 was tested, and the relative viability ([1]; first compound 0.08 µM) was 0.359, the relative viability ([1]; first compound 0.253 µM) was 0.373 and the relative viability ([1]; first compound 0.8 µM) was 0.323. The relative viability ([1]; first compound 2.53 µM) was 0.298, the relative viability ([1]; first compound 8 µM) was 0.345 and the relative viability ([2]; first compound 0.04 µM) was 0.265. For the same cell line, the relative viability ([2]; first compound 0.1265 µM) was 0.248, the relative viability ([2]; first compound 0.4 µM) was 0.267 and the relative viability ([2]; first compound 1.265 µM) was 0.253. It also gave a relative viability ([2]; first compound 4 µM) of 0.238, a relative viability ([3]; first compound 0.08 µM) of 0.918 and a relative viability ([3]; first compound 0.253 µM) of 0.559. It also gave a relative viability ([3]; first compound 0.8 µM) of 1.26, a relative viability ([3]; first compound 2.53 µM) of 0.71 and a relative viability ([3]; first compound 8 µM) of 0.752. For the same cell line, the relative viability ([4]; first compound 0.04 µM) was 0.977, the relative viability ([4]; first compound 0.4 µM) was 0.685 and the relative viability ([4]; first compound 1.265 µM) was 0.964. The relative viability ([4]; first compound 4 µM) was 0.915.
Work on NCI-H1975 yielded a relative viability ([1]; first compound 0.08 µM) of 0.363, a relative viability ([1]; first compound 0.253 µM) of 0.369 and a relative viability ([1]; first compound 0.8 µM) of 0.376. For the same cell line, the relative viability ([1]; first compound 2.53 µM) was 0.374, the relative viability ([1]; first compound 8 µM) was 0.3 and the relative viability ([2]; first compound 0.04 µM) was 0.384. It also gave a relative viability ([2]; first compound 0.1265 µM) of 0.394, a relative viability ([2]; first compound 0.4 µM) of 0.405 and a relative viability ([2]; first compound 1.265 µM) of 0.455. It also gave a relative viability ([2]; first compound 4 µM) of 0.403, a relative viability ([3]; first compound 0.08 µM) of 0.223 and a relative viability ([3]; first compound 0.253 µM) of 0.394. For the same cell line, the relative viability ([3]; first compound 0.8 µM) was 0.292, the relative viability ([3]; first compound 2.53 µM) was 0.257 and the relative viability ([3]; first compound 8 µM) was 0.282. For the same cell line, the relative viability ([4]; first compound 0.04 µM) was 0.363, the relative viability ([4]; first compound 0.1265 µM) was 0.384 and the relative viability ([4]; first compound 0.4 µM) was 0.428. For the same cell line, the relative viability ([4]; first compound 1.265 µM) was 0.375 and the relative viability ([4]; first compound 4 µM) was 0.407.
Work on NCI-H1993 yielded a relative viability ([1]; first compound 0.08 µM) of 0.602, a relative viability ([1]; first compound 0.253 µM) of 0.573 and a relative viability ([1]; first compound 0.8 µM) of 0.525. For the same cell line, the relative viability ([1]; first compound 2.53 µM) was 0.506, the relative viability ([1]; first compound 8 µM) was 0.503 and the relative viability ([2]; first compound 0.04 µM) was 0.731. For the same cell line, the relative viability ([2]; first compound 0.1265 µM) was 0.468, the relative viability ([2]; first compound 0.4 µM) was 0.632 and the relative viability ([2]; first compound 1.265 µM) was 0.606. It also gave a relative viability ([2]; first compound 4 µM) of 0.583, a relative viability ([3]; first compound 0.08 µM) of 0.899 and a relative viability ([3]; first compound 0.253 µM) of 0.681. The relative viability ([3]; first compound 0.8 µM) was 0.987, the relative viability ([3]; first compound 2.53 µM) was 0.896 and the relative viability ([3]; first compound 8 µM) was 0.827. The relative viability ([4]; first compound 0.04 µM) was 1.21, the relative viability ([4]; first compound 0.1265 µM) was 1.07 and the relative viability ([4]; first compound 0.4 µM) was 0.921. It also gave a relative viability ([4]; first compound 1.265 µM) of 1.11 and a relative viability ([4]; first compound 4 µM) of 0.875.
Cell Line NCI-H2009 has a relative viability ([1]; first compound 0.08 µM) of 0.288, a relative viability ([1]; first compound 0.253 µM) of 0.287 and a relative viability ([1]; first compound 0.8 µM) of 0.304. The relative viability ([1]; first compound 2.53 µM) was 0.278, the relative viability ([1]; first compound 8 µM) was 0.235 and the relative viability ([2]; first compound 0.04 µM) was 0.364. It also gave a relative viability ([2]; first compound 0.1265 µM) of 0.394, a relative viability ([2]; first compound 0.4 µM) of 0.436 and a relative viability ([2]; first compound 1.265 µM) of 0.395. For the same cell line, the relative viability ([2]; first compound 4 µM) was 0.368, the relative viability ([3]; first compound 0.08 µM) was 1.09 and the relative viability ([3]; first compound 0.253 µM) was 0.966. For the same cell line, the relative viability ([3]; first compound 0.8 µM) was 0.984, the relative viability ([3]; first compound 2.53 µM) was 0.995 and the relative viability ([3]; first compound 8 µM) was 0.878. It also gave a relative viability ([4]; first compound 0.04 µM) of 1.06, a relative viability ([4]; first compound 0.1265 µM) of 1.01 and a relative viability ([4]; first compound 0.4 µM) of 0.987. For the same cell line, the relative viability ([4]; first compound 1.265 µM) was 0.97 and the relative viability ([4]; first compound 4 µM) was 0.875.

From the supplement of paper PMC10307832
